Experimental findings from ChEMBL document CHEMBL5500420, “Discovery of BI-9508, a Brain-Penetrant GPR88-Receptor-Agonist Tool Compound for In Vivo Mouse Studies” (J Med Chem, 2024) are described below.

Data set [1] is described as follows: Protein binding in mouse plasma at 1 uM incubated for 2 hrs by equilibrium dialysis based HPLC-MS/MS analysis. Particulars: read-out: PPB (converted). The class given is ADME, cell-free.
Data set [2] addresses T1, G protein-coupled receptor 88 (Mus musculus, UniProt Q9EPB7). Briefly: Agonist activity at mouse GPR88 transfected in HEK293 cells incubated for 10 mins by Gi1 BRET assay. The class given is functional, cell-based.
Data set [3] is described as follows: Solubility of compound at pH 7 by high-throughput analysis. As to conditions: buffer. The class given is physicochemical.
The target of data set [4] is G protein-coupled receptor 88 (Homo sapiens, UniProt Q9GZN0). Briefly: Agonist activity at human GPR88 transfected in HEK293 cells incubated for 10 mins by Gi1 BRET assay.
Chain of G protein-coupled receptor 88 (Homo sapiens, UniProt Q9GZN0) (Q9GZN0 whole entry): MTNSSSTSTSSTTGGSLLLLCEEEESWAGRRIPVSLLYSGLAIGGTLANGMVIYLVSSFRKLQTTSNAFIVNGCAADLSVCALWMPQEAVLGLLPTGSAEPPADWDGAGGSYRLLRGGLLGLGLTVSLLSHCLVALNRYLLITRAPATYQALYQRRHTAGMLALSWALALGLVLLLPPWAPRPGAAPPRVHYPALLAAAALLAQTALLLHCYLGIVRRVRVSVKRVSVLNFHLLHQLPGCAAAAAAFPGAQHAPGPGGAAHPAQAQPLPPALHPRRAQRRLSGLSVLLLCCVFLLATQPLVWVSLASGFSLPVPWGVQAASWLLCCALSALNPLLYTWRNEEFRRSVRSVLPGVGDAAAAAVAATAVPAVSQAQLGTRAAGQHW
The test system of another data set is P-gp. Briefly: Apparent permeability in P-gp overexpressing MDCK-MDR1 cells at 1 uM incubated upto 2 hrs. In kind it is ADME, cell-based, Canis lupus familiaris. As to conditions: dog.
Data set [5] addresses T1, G protein-coupled receptor 88. Put plainly: Agonist activity at GPR88 in wildtype mouse striatal membrane assessed as stimulation of [35S]-GTPgammaS binding incubated for 1 hrs in presence of GDP by liquid scintillation counter. A general note: GTPγS resists hydrolysis and so accumulates on activated G proteins.

≈ marks a conversion by molar mass, not a printed value.

T1 sequence (Q9EPB7 whole entry): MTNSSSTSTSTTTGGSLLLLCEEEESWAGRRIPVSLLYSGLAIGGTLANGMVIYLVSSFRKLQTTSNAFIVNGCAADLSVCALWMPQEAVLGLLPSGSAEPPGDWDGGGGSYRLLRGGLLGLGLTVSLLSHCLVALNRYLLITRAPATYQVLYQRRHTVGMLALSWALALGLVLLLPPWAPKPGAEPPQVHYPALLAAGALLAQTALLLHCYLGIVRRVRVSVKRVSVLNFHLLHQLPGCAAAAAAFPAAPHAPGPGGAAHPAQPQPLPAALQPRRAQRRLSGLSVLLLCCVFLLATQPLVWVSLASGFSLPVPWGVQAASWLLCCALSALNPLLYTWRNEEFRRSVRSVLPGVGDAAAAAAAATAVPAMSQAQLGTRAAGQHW

For `COc1cc(-c2ccc(O[C@@H](C)C(F)(F)F)nc2)ccc1N(CCOC(F)F)C(=O)[C@@H]1C[C@H]1c1ccncn1`, the fraction unbound at 2 h, 1 µM in data set [1] was 0.004.

Regarding `CC(C)Oc1ccc(-c2ccc(N(CCOC(F)F)C(=O)[C@@H]3C[C@H]3c3ccncn3)c3c2cnn3C)cc1`, the EC50 in data set [2] was determined as 94 nM.

For `CC(C)Oc1ccc(-c2ccc(N(CCOC(F)F)C(=O)[C@@H]3C[C@H]3c3ccncn3)c3ncnn23)cc1`, the fraction unbound at 2 h, 1 µM in data set [1] was 0.062. For the same compound, the concentration in solution in data set [3] (solubility) was 11 µg/mL (≈ 21.6 µM).

For `CO[C@H](C)[C@H](N)CN(C(=O)[C@@H]1C[C@H]1c1ccncn1)c1ccc(-c2ccc(OC(C)C)cc2)cc1`, the EC50 in data set [4] was more than 99000 nM.

For `Cc1nnc2n1-c1sc(CCC(=O)N3CCOCC3)cc1C(c1ccccc1Cl)=NC2` [APAFANT], in the data set with P-gp, the Papp at 2 h, 1 µM came out at 3 ×10⁻⁶ cm/s.

Turning to `CO[C@H](C)[C@H](N)CN(C(=O)[C@@H]1C[C@H]1c1ccncn1)c1ccc(-c2ccc(OC(C)C)nc2)cc1`, in data set [1], the fraction unbound at 2 h, 1 µM is 0.052.

Consider `COc1cc(-c2ccc(OC(C)C)cc2)ccc1N(C[C@@H](N)[C@@H](C)OC)C(=O)[C@@H]1C[C@H]1c1ccncn1`, for which the EC50 in data set [4] worked out at 168 nM; in data set [5], 6100 nM; in data set [2], 226 nM.

One may read the EC50 as the midpoint of the concentration-response curve. What is called solubility is the concentration that dissolves in the medium under given conditions. Read a low solubility as a poorly soluble substance. As usually defined, the Papp is the rate of passage across a membrane or cell layer, normalised by area and donor concentration.
